Measured values: patent publication US7417056B2, “5-substituted quinoline and isoquinoline derivatives, a process for their production and their use as anti-inflammatory agents” (Schering AG, priority 2004, dated 2008)

Columns and labels:
[1] = test system: secretion of the cytokine IL-8, induced by lipopolysaccharide (LPS), in the human monocyte cell line THP-1; experiment: Inhibition of LPS-induced IL-8 secretion in THP-1 cells (ELISA); assay type: cell-based; conditions: efficiency of dexamethasone = 100%
Protocol: The concentration of the cytokines was determined in the supernatant by means of commercially available ELISA kits.

[2] = test system: tyrosine aminotransferase (TAT); experiment: Induction of tyrosine aminotransferase (TAT) in rat hepatoma cells; assay type: cell-based; conditions: for efficiency, induction of TAT: 24 hours, efficiency of dexamethasone = 100%; for EC50: treated for 24 hours
Excerpt: One of the most frequent undesirable actions of a glucocorticoid therapy is the so-called “steroid diabetes” [cf. Hatz, H. J., Glucocorticoide: Immunologische Grundlagen, Pharmakologie und Therapierichtlinien [Glucocorticoids: Immunological Principles, Pharmacology and Therapy Guidelines], Wissenschaftliche Verlagsgesellschaft mbH, Stuttgart, 1998]. The reason for this is the stimulation of gluconeogenesis in the liver by induction of the enzymes that are responsible for this and by free amino acids that are produced from the degradation of proteins (catabolic action of glucocorticoids). A key enzyme of the catabolic metabolism in the liver is the tyrosine aminotransferase (TAT). The activity of this enzyme can be determined photometrically from cell cultures of treated rat hepatoma cells. The cells are treated for 24 hours with the test substances, and then the TAT activity is measured.

[3] = Skin atrophy in rats (skin fold thickness measurement); assay type: in vivo; conditions: local, daily for 18 days
Protocol: Another undesirable action that occurs especially after local therapy is the induction of a skin atrophy, which leads to the skin's loss of thickness, elasticity, and ultimately the mechanical resistance of the skin. The potential of a substance to induce skin atrophy can be determined in rats. The animals are treated for 18 days daily and locally in equieffective dosages with the test substances. By means of a skin fold thickness measurement, the reduction of the skin thickness over the treatment time can be tracked.

Row | reduction of the skin thickness ([3]; concentration 0.1% (maximum anti-inflammatory action is achieved)) [%] | EC50 [2] [nM] | reduction of the skin thickness ([3]; concentration 0.01% (maximum anti-inflammatory action is achieved)) [%] | Structure (SMILES) | efficiency, inhibition of IL-8 secretion [1] [%] | efficiency, induction of TAT [2] [%]
1 | 41 |  |  | Cc1ccc2c(NCC(O)(CC(C)(C)c3cc(F)cc4c3OCC4)C(F)(F)F)cccc2n1 (centres unmarked) [Example 1, 5-[4-(5-Fluoro-2,3-dihydrobenzofuran-7-yl)-2-hydroxy-4-methyl-2-trifluoromethyl-pentylamino]-2-methylquinoline] | 74 | 93
2 |  | 10 |  | Cc1ccc2c(NCC(O)(CC(C)(C)c3cc(F)cc4c3OCC4)C(F)(F)F)ccc(F)c2n1 (centres unmarked) [Example 10, 8-Fluoro-5-[4-(5-Fluoro-2,3-dihydrobenzofuran-7-yl)-2-hydroxy-4-methyl-2-trifluoromethyl-pentylamino]-2-methylquinoline] | 86 | 92
3 |  | 4 |  | Cn1ccc2c(NCC(O)(CC(C)(C)c3cc(F)cc4c3OCC4)C(F)(F)F)cccc2c1=O (centres unmarked) [Example 11, 5-[4-(5-Fluoro-2,3-dihydrobenzofuran-7-yl)-2-hydroxy-4-methyl-2-trifluoromethyl-pentylamino]-2-methylisoquinol-1(2H)-one] | 61 | 86
4 |  |  | 65 | CCC(=O)O[C@]1(C(=O)CCl)[C@@H](C)C[C@H]2[C@@H]3CCC4=CC(=O)C=C[C@]4(C)[C@@]3(F)[C@@H](O)C[C@@]21C [clobetasol propionate, reference compound] |  | 
5 |  |  |  | C[C@]12C=CC(=O)C=C1CC[C@@H]1[C@@H]2[C@@H](O)C[C@@]2(C)[C@H]1CC[C@]2(O)C(=O)CO [prednisolone, reference compound] | 96 | 
